Legend:
[1] = tested on: PC3 (human prostate cancer); experiment: Crystal Violet viability assay, PC3; type: cell-based
Source text: (§1) Three different viability assays were chosen to complement each other and yielded results dependent on concentration and cell line: the Methyl Tetrazolium dye assay, the Sulforhodamine B fluorescent dye assay, and the Crystal Violet dye assay.
(§2) The Sulforhodamine B and Crystal Violet assays provide information about protein and were used to complement the Methyl-Tetrazolium dye assay. […] It is used for the quantification of cellular proteins of cultured cells. The assay using Crystal Violet, a dye that binds electrostatically to proteins and stains DNA, provides a reliable, simple assay for measuring viability of cells.
(§3) The Methyl Tetrazolium, Sulforhodamine B, and Crystal Violet assays were used to assess cell viabilities. The incubation times were 24 hours, 48 hours, and 72 hours. The Nerium oleander extract Anvirzel™ (a hot water extract of oleander obtained from Salud Integral, Honduras) was tested in concentrations ranging from 0.01 ng/mL to 10 ng/mL.
(§4) Cells were detached by trypsinization (Trypsin-0.25% EDTA, Invitrogen, 25200-072) during the logarithmic phase of culture growth and plated in 96-well plates (18.000 cells/well) (Corning, Costar 359) in a final volume of 200 μl of medium per well. […] The absorbance was measured after 24 hours, 48 hours, and 72 hours of incubation.
(§5) For the Crystal Violet assay, the medium was removed from the 96-well plates, the plates rinsed with PBS (Sigma, P3813) and then the cells were […] by the addition of 10% formalin (MERCK, 1.04003.2500) for 20 minutes at RT. Formalin was removed and 0.25% aqueous crystal violet (Sigma, HT901), dissolved in water, was added for 10 minutes at RT. Unbound Crystal Violet was rinsed by washing with water and finally 33% acetic acid was added to dissolve the dye.
(§6) The optical density of each plate was measured on a μQuant spectrophotometer and the data were analyzed with Gen5 software (μQuant Biomolecular Spectrophotometer MQX200 and Gen5™ Microplate Data Collection & Analysis software, BioTek® Instruments. Inc, April 2008). Absorbance was measured at 570 nm for all assays and a second wavelength was measured in order to subtract noise. For the Methyl-Tetrazolium assay this second wavelength was 630 nm and for the Sulforhodamine B and Crystal Violet assays it was 690 nm.

[2] = tested on: T47D (human breast cancer); experiment: Sulforhodamine B viability assay, T47D; type: cell-based; set-up: key: absorbance (optical density) at 570 nm, second wavelength subtracted
Source text: as §1, §2, §3, §4
For the Sulforhodamine B assay, 96-well plates were fixed by 10% trichloroacetic acid (Fluka, 91228) and were incubated at 4° C. for 1 hour. Afterwards, plates were rinsed with water and cells were stained with 0.4% Sulforhodamine B (Sigma, 341738), dissolved in 1% acetic acid (Carlo Ebra, 401422) for 15 minutes at room temperature (RT). The unbound stain was washed twice with 1% acetic acid. Finally, 10 mM Tris Buffer pH 10.5 (Sigma, T6791) was added to dissolve the dye.
as §6

[3] = tested on: HCT-116 (colorectal cancer); experiment: Crystal Violet viability assay, HCT-116; type: cell-based, human; set-up: key: absorbance at 570 nm (crystal violet), background wavelength subtracted; details: for Average CVE: HCT-116
Source text: as §1, §2, §3, §4, §5, §6

## N.N.[Cl][Pt][Cl] [cisplatin]
[1]; PC3 Run 1, 24 h, 0.1 μg/ml CDDP
  CVE Average: 0.73
[1]; PC3 Run 1, 24 h, 1 μg/ml CDDP
  CVE Average: 0.368
[1]; PC3 Run 1, 24 h, 10 μg/ml CDDP
  CVE Average: 0.548
[1]; PC3 Run 1, 24 h, 100 μg/ml CDDP
  CVE Average: 0.337
[1]; PC3 Run 1, 48 h, 0.1 μg/ml CDDP
  CVE Average: 0.938
[1]; PC3 Run 1, 48 h, 1 μg/ml CDDP
  CVE Average: 0.483
[1]; PC3 Run 1, 48 h, 10 μg/ml CDDP
  CVE Average: 0.706
[1]; PC3 Run 1, 48 h, 100 μg/ml CDDP
  CVE Average: 0.619
[1]; PC3 Run 1, 72 h, 0.1 μg/ml CDDP
  CVE Average: 1.091
[1]; PC3 Run 1, 72 h, 1 μg/ml CDDP
  CVE Average: 0.415
[1]; PC3 Run 1, 72 h, 10 μg/ml CDDP
  CVE Average: 0.64
[1]; PC3 Run 1, 72 h, 100 μg/ml CDDP
  CVE Average: 0.421
[1]; PC3 Run 2, 24 h, 0.1 μg/ml CDDP
  CVE Average: 0.489
[1]; PC3 Run 2, 24 h, 1 μg/ml CDDP
  CVE Average: 0.238
[1]; PC3 Run 2, 24 h, 10 μg/ml CDDP
  CVE Average: 0.498
[1]; PC3 Run 2, 24 h, 100 μg/ml CDDP
  CVE Average: 0.309
[1]; PC3 Run 2, 48 h, 0.1 μg/ml CDDP
  CVE Average: 0.714
[1]; PC3 Run 2, 48 h, 1 μg/ml CDDP
  CVE Average: 0.393
[1]; PC3 Run 2, 48 h, 10 μg/ml CDDP
  CVE Average: 0.694
[1]; PC3 Run 2, 48 h, 100 μg/ml CDDP
  CVE Average: 0.419
[1]; PC3 Run 2, 72 h, 0.1 μg/ml CDDP
  CVE Average: 0.76
[1]; PC3 Run 2, 72 h, 1 μg/ml CDDP
  CVE Average: 0.284
[1]; PC3 Run 2, 72 h, 10 μg/ml CDDP
  CVE Average: 0.526
[1]; PC3 Run 2, 72 h, 100 μg/ml CDDP
  CVE Average: 0.316
[1]; PC3 Run 3, 24 h, 0.1 μg/ml CDDP
  CVE Average: 0.653
[1]; PC3 Run 3, 24 h, 1 μg/ml CDDP
  CVE Average: 0.551
[1]; PC3 Run 3, 24 h, 10 μg/ml CDDP
  CVE Average: 0.638
[1]; PC3 Run 3, 24 h, 100 μg/ml CDDP
  CVE Average: 0.301
[1]; PC3 Run 3, 48 h, 0.1 μg/ml CDDP
  CVE Average: 0.599
[1]; PC3 Run 3, 48 h, 1 μg/ml CDDP
  CVE Average: 0.4
[1]; PC3 Run 3, 48 h, 10 μg/ml CDDP
  CVE Average: 0.599
[1]; PC3 Run 3, 48 h, 100 μg/ml CDDP
  CVE Average: 0.367
[1]; PC3 Run 3, 72 h, 0.1 μg/ml CDDP
  CVE Average: 0.927
[1]; PC3 Run 3, 72 h, 1 μg/ml CDDP
  CVE Average: 1.001
[1]; PC3 Run 3, 72 h, 10 μg/ml CDDP
  CVE Average: 0.666
[1]; PC3 Run 3, 72 h, 100 μg/ml CDDP
  CVE Average: 0.282
[2]; T47D Run 1, 24 h, 1 μg/ml CDDP
  SRB Average: 1.786
[2]; T47D Run 1, 24 h, 10 μg/ml CDDP
  SRB Average: 1.586
[2]; T47D Run 1, 24 h, 100 μg/ml CDDP
  SRB Average: 1.494
[2]; T47D Run 1, 48 h, 0.1 μg/ml CDDP
  SRB Average: 2.029
[2]; T47D Run 1, 48 h, 1 μg/ml CDDP
  SRB Average: 1.913
[2]; T47D Run 1, 48 h, 10 μg/ml CDDP
  SRB Average: 1.768
[2]; T47D Run 1, 72 h, 0.1 μg/ml CDDP
  SRB Average: 2.34
[2]; T47D Run 1, 72 h, 1 μg/ml CDDP
  SRB Average: 1.863
[2]; T47D Run 1, 72 h, 10 μg/ml CDDP
  SRB Average: 1.428
[2]; T47D Run 2, 24 h, 0.1 μg/ml CDDP
  SRB Average: 2.474
[2]; T47D Run 2, 24 h, 1 μg/ml CDDP
  SRB Average: 1.601
[2]; T47D Run 2, 24 h, 10 μg/ml CDDP
  SRB Average: 1.417
[2]; T47D Run 2, 24 h, 100 μg/ml CDDP
  SRB Average: 1.102
[2]; T47D Run 2, 48 h, 0.1 μg/ml CDDP
  SRB Average: 2.112
[2]; T47D Run 2, 48 h, 1 μg/ml CDDP
  SRB Average: 1.969
[2]; T47D Run 2, 48 h, 10 μg/ml CDDP
  SRB Average: 1.988
[2]; T47D Run 2, 48 h, 100 μg/ml CDDP
  SRB Average: 1.708
[2]; T47D Run 2, 72 h, 0.1 μg/ml CDDP
  SRB Average: 1.969
[2]; T47D Run 2, 72 h, 1 μg/ml CDDP
  SRB Average: 1.201
[2]; T47D Run 2, 72 h, 10 μg/ml CDDP
  SRB Average: 1.567
[2]; T47D Run 2, 72 h, 100 μg/ml CDDP
  SRB Average: 1.513
[2]; T47D Run 3, 24 h, 0.1 μg/ml CDDP
  SRB Average: 1.615
[2]; T47D Run 3, 24 h, 1 μg/ml CDDP
  SRB Average: 1.846
[2]; T47D Run 3, 24 h, 10 μg/ml CDDP
  SRB Average: 1.368
[2]; T47D Run 3, 24 h, 100 μg/ml CDDP
  SRB Average: 1.34
[2]; T47D Run 3, 48 h, 0.1 μg/ml CDDP
  SRB Average: 2.223
[2]; T47D Run 3, 48 h, 1 μg/ml CDDP
  SRB Average: 2.03
[2]; T47D Run 3, 48 h, 10 μg/ml CDDP
  SRB Average: 1.974
[2]; T47D Run 3, 48 h, 100 μg/ml CDDP
  SRB Average: 1.758
[2]; T47D Run 3, 72 h, 0.1 μg/ml CDDP
  SRB Average: 2.044
[2]; T47D Run 3, 72 h, 1 μg/ml CDDP
  SRB Average: 1.344
[2]; T47D Run 3, 72 h, 10 μg/ml CDDP
  SRB Average: 1.461
[3]; HCT-116, Run 3, 24 h, 0.1 μg/ml CDDP
  CVE Average: 0.371
[3]; HCT-116, Run 3, 24 h, 1 μg/ml CDDP
  CVE Average: 0.267
[3]; HCT-116, Run 3, 24 h, 10 μg/ml CDDP
  CVE Average: 0.393
[3]; HCT-116, Run 3, 24 h, 100 μg/ml CDDP
  CVE Average: 0.256
[3]; HCT-116, Run 3, 48 h, 0.1 μg/ml CDDP
  CVE Average: 1.153
[3]; HCT-116, Run 3, 48 h, 1 μg/ml CDDP
  CVE Average: 0.687
[3]; HCT-116, Run 3, 48 h, 10 μg/ml CDDP
  CVE Average: 0.993
[3]; HCT-116, Run 3, 48 h, 100 μg/ml CDDP
  CVE Average: 0.359
[3]; HCT-116, Run 3, 72 h, 0.1 μg/ml CDDP
  CVE Average: 1.078
[3]; HCT-116, Run 3, 72 h, 1 μg/ml CDDP
  CVE Average: 0.235
[3]; HCT-116, Run 3, 72 h, 10 μg/ml CDDP
  CVE Average: 0.476
[3]; HCT-116, Run 3, 72 h, 100 μg/ml CDDP
  CVE Average: 0.214
[3]; Run 1, 24 h, 0.1 μg/ml CDDP
  Average CVE: 0.569
[3]; Run 1, 24 h, 1 μg/ml CDDP
  Average CVE: 0.563
[3]; Run 1, 24 h, 10 μg/ml CDDP
  Average CVE: 1.173
[3]; Run 1, 24 h, 100 μg/ml CDDP
  Average CVE: 0.344
[3]; Run 1, 48 h, 0.1 μg/ml CDDP
  Average CVE: 0.984
[3]; Run 1, 48 h, 1 μg/ml CDDP
  Average CVE: 0.624
[3]; Run 1, 48 h, 10 μg/ml CDDP
  Average CVE: 0.488
[3]; Run 1, 48 h, 100 μg/ml CDDP
  Average CVE: 0.356
[3]; Run 1, 72 h, 0.1 μg/ml CDDP
  Average CVE: 1.352
[3]; Run 1, 72 h, 1 μg/ml CDDP
  Average CVE: 0.308
[3]; Run 1, 72 h, 10 μg/ml CDDP
  Average CVE: 0.501
[3]; Run 1, 72 h, 100 μg/ml CDDP
  Average CVE: 0.51
[3]; Run 2, 24 h, 0.1 μg/ml CDDP
  Average CVE: 0.52
[3]; Run 2, 24 h, 1 μg/ml CDDP
  Average CVE: 0.302
[3]; Run 2, 24 h, 10 μg/ml CDDP
  Average CVE: 0.477
[3]; Run 2, 24 h, 100 μg/ml CDDP
  Average CVE: 0.303
[3]; Run 2, 48 h, 0.1 μg/ml CDDP
  Average CVE: 0.971
[3]; Run 2, 48 h, 1 μg/ml CDDP
  Average CVE: 0.425
[3]; Run 2, 48 h, 10 μg/ml CDDP
  Average CVE: 0.608
[3]; Run 2, 48 h, 100 μg/ml CDDP
  Average CVE: 0.529
[3]; Run 2, 72 h, 0.1 μg/ml CDDP
  Average CVE: 1.187
[3]; Run 2, 72 h, 1 μg/ml CDDP
  Average CVE: 0.551
[3]; Run 2, 72 h, 10 μg/ml CDDP
  Average CVE: 0.435
[3]; Run 2, 72 h, 100 μg/ml CDDP
  Average CVE: 0.492
